Reference: US20060246005A1, “Poly(peptide) as a chelator: methods of manufacture and uses” (THE BOARD OF REGENTS OF THE UNIVERSITY OF TEXAS SYSTEM, priority 2005, published 2006)

System: mammary tumor derived from RBA CRL-1747 cell line
Assay: Scintigraphic (planar) imaging in breast tumor-bearing rats
Type: in vivo, rat
Settings: 0.5-4 hrs post-injection
Excerpt: The camera field of view is 20 cm×20 cm with an edge of 1.3 cm. The intrinsic spatial resolution is 3 mm and the matrix is 64×64.
To ascertain whether the tumor uptake by with ^99mTc-GAP-EDL was related to estrogen receptors, we performed a blocking study. […] Computer outlined regions of interest (ROI) (counts per pixel) were used to determine tumor-to-background count density ratios.
Scintigraphic images were obtained at 0.5-4.0 hrs after i.v. injection of ^99mTc-GAP-COX2i (300 μCi/rat, iv) and imaged at 0.5-4.0 hrs in mammary tumor-bearing rats (derived from RBA CRL-1747 cell line). Whole-body autoradiograms were obtained by a quantitative image analyzer (Cyclone Storage Phosphor System, Packard, Meridian, Conn.). Following intravenous injection of ^99mTc-GAP-COX2i (100 μCi/rat, iv), athymic nude mice bearing human uterine sarcoma in the right leg were killed at 1 hour and the body was fixed in carboxymethyl cellulose (3%). […] Each section was thawed and mounted on a slide. […]
Scintigraphic images were obtained at 0.5-4.0 hrs after i.v. injection of ^99“Tc-GAP-LAS or GAP-HCD (300 μCi/rat, iv) and imaged at 0.5-4.0 hrs in mammary tumor-bearing rats (derived from RBA CRL-1747 cell line). Whole-body autoradiogramrs were obtained by a quantitative image analyzer (Cyclone Storage Phosphor System, Packard, Meridian, Conn.). […]

Question: Which “tumor visualization on scintigraphic images” value does the source give for O=C([O-])CN(CCN(CC(=O)[O-])CC(=O)[O-])CCN(CC(=O)[O-])CC(=O)[O-].[99Tc+4] [^99mTc-DTPA] here?
Answer: tumor could be visualized
